Here are results for 40 compounds from patent publication US20100063047A1 (KALYPSYS, INC., priority 2008, published 2010).

The target of the test is T1, human H1 (Homo sapiens, UniProt P35367).
T1 construct: host or cells: CHO-K1, also expressing mitochondrion-targeted aequorin
T1 sequence (P35367 whole entry): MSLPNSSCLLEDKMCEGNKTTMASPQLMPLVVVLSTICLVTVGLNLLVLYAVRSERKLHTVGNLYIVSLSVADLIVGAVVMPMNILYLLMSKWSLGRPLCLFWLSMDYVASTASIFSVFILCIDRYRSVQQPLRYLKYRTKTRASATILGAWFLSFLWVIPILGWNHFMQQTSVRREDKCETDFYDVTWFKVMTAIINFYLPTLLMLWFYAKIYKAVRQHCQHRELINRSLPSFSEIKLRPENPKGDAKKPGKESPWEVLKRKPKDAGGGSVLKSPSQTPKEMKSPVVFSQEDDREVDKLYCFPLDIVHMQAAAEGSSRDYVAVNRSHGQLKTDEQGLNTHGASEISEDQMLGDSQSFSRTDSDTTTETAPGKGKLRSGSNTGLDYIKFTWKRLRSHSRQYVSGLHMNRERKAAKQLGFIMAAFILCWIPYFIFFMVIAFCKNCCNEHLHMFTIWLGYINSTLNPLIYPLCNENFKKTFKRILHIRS
Nature of the test: In vitro histamine H1 receptor cell-based aequorin bioluminescence antagonist assay. To be noted: CHO-K1 cells expressing human H1 and aequorin; histamine at EC80; read-out: H1 Antagonist EC50. The method, then:
In vitro Histamine Receptor Cell-Based Assays
The cell-based assays utilize an aequorin dependent bioluminescence signal. Doubly-transfected, stable CHO—K1 cell lines expressing human H1 or H4, mitochondrion-targeted aequorin, and (H4 only) human G protein Gα16 are obtained from Perkin-Elmer. Cells are maintained in F12 (Ham's) growth medium, containing 10% (vol./vol.) fetal bovine serum, penicillin (100 IU/mL), streptomycin (0.1 mg/mL), zeocin (0.25 mg/mL) and geneticin (0.40 mg/mL). Cell media components are from Invitrogen, Inc. One day prior to assay, the growth medium is replaced with the same, excluding zeocin and geneticin.
For assay preparation, growth medium is aspirated, and cells are rinsed with calcium-free, magnesium-free phosphate-buffered saline, followed by two to three minute incubation in Versene (Invitrogen, Inc.) at 37° C. Assay medium (DMEM:F12 [50:50], phenol-red free, containing 1 mg/mL protease-free bovine serum albumin) is added to collect the released cells, which are then centrifuged. The cell pellet is re-suspended in assay medium, centrifuged once more, and re-suspended in assay medium to a final density of 5×10^6 cells/mL. Coelenterazine-h dye (500 μM in ethanol) is added to a final concentration of 5 μM, and mixed immediately. The conical tube containing the cells is then wrapped with foil to protect the light-sensitive dye. The cells are incubated for four hours further at room temperature (approximately 21° C.) with end-over-end rotation to keep them in suspension.
Just before assay, the dye-loaded cells are diluted to 0.75×10^6 cells/mL (H1 receptor) or 1.5×10^6 cells/mL (H4 receptor) with additional assay medium. Cells are dispensed to 1536 well micro-titer plates at 3 μL/well. To assay receptor antagonism, 60 nl of 100× concentration test compounds in 100% dimethyl sulfoxide (DMSO) are dispensed to the wells, one compound per well, by passive pin transfer, and the plates are incubated for 15 minutes at room temperature. […] The pipette dispenses 3 μL/well of agonist (histamine, at twice the final concentration, where final concentration is a previously determined EC80) in assay medium, with concurrent bioluminescence detection. Agonist activity of test compounds is excluded by separate assays that measure response to test compounds immediately, without added histamine agonist.
CCD image capture on the Lumilux includes a 5 second baseline read prior to agonist addition, and generally a 40 second read per plate after agonist addition. A decrease in bioluminescence signal (measured either as area-under-the-curve, or maximum signal amplitude minus minimum signal amplitude) correlates with receptor antagonism in a dose dependent manner. The negative control is DMSO lacking any test compound. For antagonist assays, the positive controls are diphenhydramine (2-Diphenylmethoxy-N,N-dimethylethylamine, 10 μM final concentration, H1 receptor) or JNJ7777120 (1-[(5-Chloro-1H-indol-2-yl)carbonyl]-4-methyl-piperazine, 10 μM final concentration, H4 receptor). Efficacy is measured as a percentage of positive control activity.
One may read the EC50 as the concentration at which the effect is half-maximal. As for `Cc1cccc(CNc2ncnc3scc(C)c23)c1` [Example 95, 5-methyl-N-[(3-methylphenyl)methyl]thieno[2,3-d]pyrimidin-4-amine], the EC50 is greater than 10 µM.

Regarding `Cc1csc2ncnc(N[C@@H](C)c3ccccc3)c12` [Example 96, 5-methyl-N-[(1S)-1-phenylethyl]thieno[2,3-d]pyrimidin-4-amine], the concentration for a half-maximal effect (EC50) was greater than 10 µM.

For `Cc1csc2ncnc(N[C@H](C)c3ccccc3)c12` [Example 97, 5-methyl-N-[(1R)-1-phenylethyl]thieno[2,3-d]pyrimidin-4-amine], the EC50 was greater than 10 µM.

Regarding `Cc1ccccc1CNc1ncnc2scc(C)c12` [Example 99, 5-methyl-N-[(2-methylphenyl)methyl]thieno[2,3-d]pyrimidin-4-amine], the EC50 is greater than 10 µM.

Regarding `Cc1ccc(CNc2ncnc3scc(C)c23)cc1` [Example 100, 5-methyl-N-[(4-methylphenyl)methyl]thieno[2,3-d]pyrimidin-4-amine], the 50% effective concentration (EC50) is greater than 10 µM.

Regarding `Cc1csc2ncnc(NCc3cccc(F)c3)c12` [Example 102, N-[(3-fluorophenyl)methyl]-5-methylthieno[2,3-d]pyrimidin-4-amine], the concentration giving a half-maximal response (EC50) is greater than 10 µM.

In the case of `Cc1csc2ncnc(NCc3ccc(F)cc3)c12` [Example 103, N-[(4-fluorophenyl)methyl]-5-methylthieno[2,3-d]pyrimidin-4-amine], the EC50 is greater than 10 µM.

Consider `Cc1csc2ncnc(NCc3ccccc3F)c12` [Example 104, N-[(2-fluorophenyl)methyl]-5-methylthieno[2,3-d]pyrimidin-4-amine], for which the EC50 was greater than 10 µM.

On to `Cc1csc2ncnc(NC(C)CCCC(C)C)c12` (stereo not shown) [Example 108, 5-methyl-N-(6-methylheptan-2-yl)thieno[2,3-d]pyrimidin-4-amine], for which the EC50 is greater than 10 µM.

As to `CCOC(=O)CC(C)Nc1ncnc2scc(C)c12` (stereo not shown) [Example 110, ethyl 3-({5-methylthieno[2,3-d]pyrimidin-4-yl}amino)butanoate], the half-maximal effective concentration (EC50) was greater than 10 µM.

As for `Cc1csc2ncnc(NC3CCc4ccccc43)c12` (stereo not shown) [Example 111, N-(2,3-dihydro-1H-inden-1-yl)-5-methylthieno[2,3-d]pyrimidin-4-amine], the 50% effective concentration (EC50) is greater than 10 µM.

Consider `Cc1ccc(C)c(CNc2ncnc3scc(C)c23)c1` [Example 113, N-[(2,5-dimethylphenyl)methyl]-5-methylthieno[2,3-d]pyrimidin-4-amine], for which the EC50 is greater than 10 µM.

Turning to `Cc1ccc([C@H](C)Nc2ncnc3scc(C)c23)cc1` [Example 114, 5-methyl-N-[(1S)-1-(4-methylphenyl)ethyl]thieno[2,3-d]pyrimidin-4-amine], the EC50 is greater than 10 µM.

Take `Cc1csc2ncnc(NCC(C)c3ccccc3)c12` (stereo not shown) [Example 116, 5-methyl-N-(2-phenylpropyl)thieno[2,3-d]pyrimidin-4-amine]: the EC50 was greater than 10 µM.

Regarding `Cc1csc2ncnc(NCCCc3ccccc3)c12` [Example 117, 5-methyl-N-(3-phenylpropyl)thieno[2,3-d]pyrimidin-4-amine], the EC50 is greater than 10 µM.

As to `Cc1ccc(CNc2ncnc3scc(C)c23)cc1C` [Example 118, N-[(3,4-dimethylphenyl)methyl]-5-methylthieno[2,3-d]pyrimidin-4-amine], the 50% effective concentration (EC50) was greater than 10 µM.

As for `Cc1csc2ncnc(NCC(C)c3ccccc3)c12` (stereo not shown) [Example 119, 5-methyl-N-(2-phenylpropyl)thieno[2,3-d]pyrimidin-4-amine], the EC50 was greater than 10 µM.

Regarding `Cc1csc2ncnc(NCCc3ccc(O)cc3)c12` [Example 121, 4-[2-({5-methylthieno[2,3-d]pyrimidin-4-yl}amino)ethyl]phenol], the EC50 is greater than 10 µM.

Turning to `Cc1csc2ncnc(NCCOc3ccccc3)c12` [Example 122, 5-methyl-N-(2-phenoxyethyl)thieno[2,3-d]pyrimidin-4-amine], the EC50 was greater than 10 µM.

With `COc1ccccc1CNc1ncnc2scc(C)c12` [Example 123, N-[(2-methoxyphenyl)methyl]-5-methylthieno[2,3-d]pyrimidin-4-amine], the half-maximal effective concentration (EC50) is greater than 10 µM.

Take `COc1ccc(CNc2ncnc3scc(C)c23)cc1` [Example 124, N-[(4-methoxyphenyl)methyl]-5-methylthieno[2,3-d]pyrimidin-4-amine]: the EC50 is greater than 10 µM.

In the case of `COc1cccc(CNc2ncnc3scc(C)c23)c1` [Example 125, N-[(3-methoxyphenyl)methyl]-5-methylthieno[2,3-d]pyrimidin-4-amine], the concentration for a half-maximal effect (EC50) is greater than 10 µM.

Consider `Cc1csc2ncnc(NCCc3ccccc3F)c12` [Example 127, N-[2-(2-fluorophenyl)ethyl]-5-methylthieno[2,3-d]pyrimidin-4-amine], for which the EC50 was greater than 10 µM.

For the compound `Cc1csc2ncnc(NCc3cccc(Cl)c3)c12` [Example 129, N-[(3-chlorophenyl)methyl]-5-methylthieno[2,3-d]pyrimidin-4-amine], the EC50 was greater than 10 µM.

For `Cc1csc2ncnc(NCc3ccccc3Cl)c12` [Example 130, N-[(2-chlorophenyl)methyl]-5-methylthieno[2,3-d]pyrimidin-4-amine], the concentration giving a half-maximal response (EC50) was greater than 10 µM.

Take `Cc1csc2ncnc(NCc3ccc(Cl)cc3)c12` [Example 131, N-[(4-chlorophenyl)methyl]-5-methylthieno[2,3-d]pyrimidin-4-amine]: the 50% effective concentration (EC50) was greater than 10 µM.

Take `Cc1csc2ncnc(NCc3ccc(F)cc3F)c12` [Example 133, N-[(2,4-difluorophenyl)methyl]-5-methylthieno[2,3-d]pyrimidin-4-amine]: the half-maximal effective concentration (EC50) was greater than 10 µM.

On to `Cc1csc2ncnc(NCc3ccc(F)c(F)c3)c12` [Example 134, N-[(3,4-difluorophenyl)methyl]-5-methylthieno[2,3-d]pyrimidin-4-amine], for which the EC50 is greater than 10 µM.

For `Cc1csc2ncnc(NCc3cc(F)cc(F)c3)c12` [Example 135, N-[(3,5-difluorophenyl)methyl]-5-methylthieno[2,3-d]pyrimidin-4-amine], the EC50 was greater than 10 µM.

With `Cc1csc2ncnc(NCCCN3CCOCC3)c12` [Example 136, 5-methyl-N-[3-(morpholin-4-yl)propyl]thieno[2,3-d]pyrimidin-4-amine], the EC50 is greater than 10 µM.

As to `Cc1csc2ncnc(NC(C)CCc3ccccc3)c12` (stereo not shown) [Example 139, 5-methyl-N-(4-phenylbutan-2-yl)thieno[2,3-d]pyrimidin-4-amine], the concentration giving a half-maximal response (EC50) is greater than 10 µM.

For `Cc1csc2ncnc(NCc3ccc(C(C)C)cc3)c12` [Example 140, 5-methyl-N-{[4-(propan-2-yl)phenyl]methyl}thieno[2,3-d]pyrimidin-4-amine], the EC50 is greater than 10 µM.

Regarding `Cc1csc2ncnc(NCc3ccc4c(c3)OCO4)c12` [Example 141, N-(2H-1,3-benzodioxol-5-ylmethyl)-5-methylthieno[2,3-d]pyrimidin-4-amine], the concentration giving a half-maximal response (EC50) was greater than 10 µM.

On to `Cc1csc2ncnc(N[C@H](CO)Cc3ccccc3)c12` [Example 143, (2S)-2-({5-methylthieno[2,3-d]pyrimidin-4-yl}amino)-3-phenylpropan-1-ol], for which the concentration giving a half-maximal response (EC50) is greater than 10 µM.

With `COc1ccccc1CCNc1ncnc2scc(C)c12` [Example 145, N-[2-(2-methoxyphenyl)ethyl]-5-methylthieno[2,3-d]pyrimidin-4-amine], the EC50 was greater than 10 µM.

In the case of `CCOc1ccccc1CNc1ncnc2scc(C)c12` [Example 146, N-[(2-ethoxyphenyl)methyl]-5-methylthieno[2,3-d]pyrimidin-4-amine], the EC50 is greater than 10 µM.

Turning to `Cc1csc2ncnc(NCCc3ccccc3Cl)c12` [Example 148, N-[2-(2-chlorophenyl)ethyl]-5-methylthieno[2,3-d]pyrimidin-4-amine], the EC50 is greater than 10 µM.

As for `Cc1csc2ncnc(NCCc3cccc(Cl)c3)c12` [Example 149, N-[2-(3-chlorophenyl)ethyl]-5-methylthieno[2,3-d]pyrimidin-4-amine], the EC50 is greater than 10 µM.

Turning to `Cc1csc2ncnc(NCc3ccc(F)c(Cl)c3)c12` [Example 152, N-[(3-chloro-4-fluorophenyl)methyl]-5-methylthieno[2,3-d]pyrimidin-4-amine], the EC50 was greater than 10 µM.

As for `Cc1csc2ncnc(NCCNC(=O)OC(C)(C)C)c12` [Example 154, tert-butyl N-[2-({5-methylthieno[2,3-d]pyrimidin-4-yl}amino)ethyl]carbamate], the concentration giving a half-maximal response (EC50) was greater than 10 µM.
